# Like-named read-outs stand apart in the source and are kept apart here.
# Assays:
# [1] = cytotoxicity, modified MTT assay (% viable cells); assay type: cell-based, porcine; conditions: pig, smooth muscle cells; fresh medium without serum, 24 h at 37° C.; no drug = 100% viable
# Protocol: To distinguish cytotoxicity from the ability of a compound to prevent proliferation, the test compounds were examined using a commercial modification of the MTT assay. Briefly, cells were grown in 24 well plates to 70-80% confluency. The cells were serum deprived for 24-48 hours prior to initiation of the experimental protocol. To insure that the MTT assay monitored toxicity rather than proliferation, the cells were incubated with […] test compound in fresh medium without serum for 24 hours at 37° C. in a humidified CO2 incubator. Upon completion of the compound treatment, MTT indicator dye was added for 4 hours at 37° C. Cells were then solubilized and aliquots from each well were transferred to a 96-well plate for analysis. Absorbance at 570 nm wavelength with a reference wavelength of 630 nm was recorded using an ELISA plate reader. Results are reported as percent viable using no drug (100% viable) and pre-solubilization (0% viable) standards.
# [2] = tested on: porcine aortic smooth muscle cells; test: inhibition of smooth muscle cell proliferation (3H thymidine, serum or PDGF stimulated); assay type: cell-based; conditions: Sus scrofa, 24-36 h at 37° C.
# Protocol: The ability of the compounds of the present invention to inhibit smooth muscle cell proliferation was established using isolated porcine aortic smooth muscle cells in a modification of the procedure of Castellot et al. J. Biol. Chem 257(19) 11256 (1982), as follows:
# Fresh porcine aortas, scrupulously cleansed of fatty tissue, are rinsed in sterile phosphate-buffered saline with 2% antibiotic-antimycotic (100×) liquid (10,000 units of penicillin (base), 10,000 μg of streptomycin (base), and 25 μg of amphotericin B/mL utilizing penicillin G (sodium salt), streptomycin sulfate, and amphotericin B as Fungizone® in 0.85% saline, available from Gibco Laboratories, Grand Island Biological Co., Grand Island, N.Y.). The tissue is then digested in 10-15 mL of an enzyme solution containing collagenase type I, 165 U/mL; elastase type III, 15 U/mL; BSA, 2 mg/mL; and soybean trypsin inhibitor, 0.375 mg/mL, followed by incubation at 37° C. under 5% CO2 atmosphere for 10 to 15 minutes. After this treatment, the outer surface adventitia is removed by peeling with a forceps. The aorta is then longitudinally cut and laid open and the endothelial layer is removed by scraping.
# The medial layer of cells is rinsed in the enzyme solution, and placed in a new 100 mm dish with 10 mL of enzyme solution. The medial layer of cells is minced using a fine pair of scissors and digested for 2-3 hours at 37° C. in 30 mL of fresh enzyme solution. After digestion, the medial tissue is homogenized using a sterile Pasteur pipette with a fire polished tip or an Eppendorf pipetter with a 200-1000 μL sterile pipette tip. The suspension is then centrifuged for 10 minutes at 8000 rpm and the pellet is suspended in 4-6 mL of fresh enzyme solution and plated onto 4-6 100 mm flasks with vented caps. The cells are then allowed to grow to confluence and split using 0.25% trypsin. The cells are evaluated for purity and overall quality using antibody to SMC actin.
# The cells are assayed in early passage (generally passage 3-7) at sub-confluent conditions. Cultures are grown in 16 mm (24 well) multi-well culture dishes in media 199 supplemented with 10% fetal bovine serum and 2% antibiotic/antimycotic. At subconfluence, the cells are placed in a defined serum free, lymphocyte medium (AIM-V; Gibco) for 24-48 hours prior to initiating the experimental protocol.
# The standard test procedure is initiated by addition of the test compound, ^3 H thymidine and serum or a specific growth factor to the serum deprived synchronized cells. Growth factor and serum stimulations are optimized for each cell type. The test compounds are added to each well at 50 fold dilution (20 μL/well) and the plates are incubated for 24-36 hours at 37° C. in 5% CO2 atmosphere. Test compounds are dissolved in 50% ethanol and assayed at 1, 10, and 100 μM. As a control, RG 50872 (Bilder, G. A.; et al., Am. J. Cell Physiol., 1991; 260: C721) is routinely assayed under the conditions of each cell preparation at a concentration of 5 μM.
# At the completion of the experiment, the plates are placed on ice, washed three times with ice cold PBS and incubated in ice cold 10% trichloroacetic acid (TCA) for 30 minutes to remove acid soluble proteins. Each solution is transferred to a scintillation vial containing 0.4N HCl (500 μL/vial to neutralize NaOH) and each well is rinsed two times with water (500 μL) for a total volume of 2 mL/vial.
# Data is quantitated by subjecting the vials to a scintillation counter, in triplicate, for both control and experimental samples. Control (100%) data is obtained from maximally stimulated cells, as the result of growth factor or serum stimulation. Experimental data is obtained from cells maximally stimulated with growth factor or serum and treated with a test compound. (The platelet-derived growth factor used in the assay was human recombinant PDGF-AB purchased from Upstate Biotechnology Inc., Lake Placid, N.Y.). Data is expressed as a percent of control from which IC50 s are determined.
# [3] = human recombinant PDGF-AB stimulated, read-out: Porcine Smooth Muscle Cell Antiproliferation IC50 or % Inhibition at x Concentration, PDGF
# [4] = serum-stimulated, read-out: Porcine Smooth Muscle Cell Antiproliferation IC50 or % Inhibition at x Concentration, Serum
Structure (SMILES),viability at 24 h [1],"IC50 [2, 3]","IC50 [2, 4]"
"N#C/C(=C\c1ccncc1)c1cccnc1 [Example 1, Z-2-(Pyridin-3yl)-3-(pyridin-4-yl)-acrylonitrile]",100%,346 nM,1160 nM
"N#CC(=Cc1ccnc2ccccc12)c1cccnc1 [Example 2, 2-Pyridin-3-yl-3-quinolin-4-yl-acrylonitrile]",–,–,81000 nM
"N#CC(=Cc1ccc2c(c1)OCCO2)c1cccnc1 [Example 3, 3-(2,3-Dihydro-benzo[1,4]dioxin-6-yl)-2-pyridin-3-yl-acrylonitrile]",86%,10500 nM,3800 to 11500 nM
"N#CC(=Cc1ccccn1)c1cccnc1 [Example 4, 2-Pyridin-3-yl-3-pyridin-2-yl-acrylonitrile]",92%,–,48300 nM
"N#CC(=Cc1cccnc1)c1cccnc1 [Example 5, 2,3-Di-pyridin-3-yl-acrylonitrile]",–,–,96600 nM
"N#CC(=Cc1c[nH]c2ncccc12)c1cccnc1 [Example 6, 2-(Pyridin-3-yl)-3-(1H-pyrrolo[2,3-b]pyridin-3-yl)-acrylonitrile]",100%,900 nM,1180 nM
"N#C/C(=C\c1ccc2c(c1)OCCO2)c1c[nH]c2ncccc12 [Example 7, (Z)-3-(2,3-Dihydro-benzo[1,4]dioxin-6-yl)-2-(1H-pyrrolo-[2,3-b]pyridin-3-yl)-acrylonitrile]",100%,14800 nM,1230 nM
"CCn1c2ccccc2c2cc(/C=C(\C#N)c3cccnc3)ccc21 [Example 8, (Z)-3-(9-Ethyl-9H-carbazol-3-yl)-2-(pyridin-3-yl) acrylonitrile]",100%,336 nM,355 nM
"N#CC(=Cc1ccc[nH]1)c1cccnc1 [Example 9, 2-(Pyridin-3-yl)-3-(1H-pyrrol-2-yl)-acrylonitrile]",84%,–,92000 nM
